In one assay the target is B-Raf^V600E (Homo sapiens, UniProt P15056, V600E). Kind of assay: In vitro B-Raf kinase assay. The class given is biochemical. The note with it: for Inhibition rate B-Raf^V600E: [I]=1μM.
Assay [1] concerns A375 (B-Raf^V600E) malignant melanoma cells. Put plainly: Anti-proliferation activity, A375 melanoma cells. The note with it: for Tumor growth inhibition rate A375(B-Raf^V600E): [I]=10μM. Type of assay: cell-based, human.
A further assay deals with B-Raf^WT (Homo sapiens, UniProt P15056). Put plainly: In vitro B-Raf kinase assay. The class given is biochemical. The following applies: for Inhibition rate (%) B-Raf: 2μM of compound; for inhibition at 2 µM: read-out: Inhibition rate (%) B-Raf; for Inhibition rate B-Raf: [I]=1μM.
B-Raf^WT, sequence (P15056 433-726): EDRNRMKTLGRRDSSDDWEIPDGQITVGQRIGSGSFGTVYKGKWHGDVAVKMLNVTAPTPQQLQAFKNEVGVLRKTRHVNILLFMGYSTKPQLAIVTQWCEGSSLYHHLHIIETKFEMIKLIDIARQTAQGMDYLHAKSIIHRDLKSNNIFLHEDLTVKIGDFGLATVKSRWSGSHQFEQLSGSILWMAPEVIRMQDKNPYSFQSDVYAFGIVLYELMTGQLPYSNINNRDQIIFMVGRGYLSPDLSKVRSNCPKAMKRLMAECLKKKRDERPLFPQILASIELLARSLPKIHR
The mark [2] stands for this setting: read-out: Inhibition rate (%) B-Raf^V600E, 2μM of compound.
[3] abbreviates: read-out: Inhibition rate (%) B-Raf^V600E.

Read-outs that look alike come from different tables or passages of the source.

B-Raf^V600E, sequence (P15056 433-726 V600E): as the sequence (P15056 433-726) above, with V168E counted along it

On to `O=C1C(=Cc2ccc(-c3cccc(C(F)(F)F)c3)o2)Cc2ccccc21` [Compound 16b, 2-[5-(3-trifluomethyl-phenyl)-furan-2-ylmethylene]-indan-1-one], for which the “Inhibition rate (%) B-Raf^V600E” value at B-Raf^V600E (2μM of compound) came to 22% n.d.
On to `O=C1C(=Cc2ccc(-c3cccc(C(F)(F)F)c3)o2)Cc2cc(Cl)ccc21` [Compound 16c, 2-[5-(3-trifluomethyl-phenyl)-furan-2-ylmethylene]-5-chloro-indan-1-one], for which the “Inhibition rate (%) B-Raf^V600E” value on B-Raf^V600E (0.5μM of compound) is given as 42%. The “Tumor growth inhibition rate A375(B-Raf^V600E)” value in assay [1] is recorded as 3.2.
As to `O=C1C(=Cc2ccc(-c3ccc([N+](=O)[O-])cc3)o2)Cc2ccccc21` [Compound 16d, 2-[5-(4-nitro-phenyl)-furan-2-ylmethylene]-indan-1-one], on B-Raf^V600E (setting [2]), the inhibition at 2 µM is 34%.
Consider `O=C1C(=Cc2ccc(-c3ccc(Cl)cc3)o2)Cc2ccccc21` [Compound 16e, 2-[5-(4-chloro-phenyl)-furan-2-ylmethylene]-indan-1-one], for which the inhibition at 0.5 µM at B-Raf^V600E (read-out: Inhibition rate (%) B-Raf^V600E, 0.5μM of compound) is 41%. Further, the inhibition at 2 µM at B-Raf^V600E (setting [2]) was more than 50%. The inhibition at 10 µM in assay [1] (Homo sapiens, A-375, read-out: Tumor growth inhibition rate A375(B-Raf^V600E)) stood at 5.2%.
On to `O=C1C(=Cc2ccc(-c3ccc(Br)cc3)o2)Cc2ccccc21` [Compound 16f, 2-[5-(4-bromo-phenyl)-furan-2-ylmethylene]-indan-1-one], for which the inhibition at 2 µM on B-Raf^V600E (setting [2]) came out at 42%.
For `O=C1C(=Cc2ccc(-c3cc(C(F)(F)F)ccc3Cl)o2)Cc2ccccc21` [Compound 16g, 2-[5-(2-chloro-5-trifluomethyl)-furan-2-ylmethylene]-indan-1-one], the “Inhibition rate (%) B-Raf^V600E” value on B-Raf^V600E (2μM of compound) was 44% n.d.
Still for that read-out and setting: in the case of `O=C1Nc2ccccc2C1=Cc1ccc(-c2cccc(C(F)(F)F)c2)o1` [Compound 17a, 3-[5-(3-trifluomethyl-phenyl)-furan-2-ylmethylene]-1,3-dihydro-indol-2-one] it was 34% n.d; in that of `O=C1Nc2cc(Cl)ccc2C1=Cc1ccc(-c2cccc(C(F)(F)F)c2)o1` [Compound 17b, 3-[5-(3-trifluomethyl-phenyl)-furan-2-ylmethylene]-6-chloro-1,3-dihydro-indol-2-one], 38% n.d.
On to `O=C1Nc2ccc(Cl)cc2C1=Cc1ccc(-c2cccc(C(F)(F)F)c2)o1` [Compound 17c, 3-[5-(3-trifluomethyl-phenyl)-furan-2-ylmethylene]-5-chloro-1,3-dihydro-indol-2-one], for which the “Inhibition rate (%) B-Raf^V600E” value at B-Raf^V600E (2μM of compound) is given as 23% n.d. The “Inhibition rate (%) B-Raf” value at B-Raf^WT worked out at 17% n.d.
Regarding `O=C1Nc2ccccc2C1=Cc1ccc(-c2cc(C(F)(F)F)ccc2Cl)o1` [Compound 17d, 3-[5-(2-chloro-5-trifluomethyl)-furan-2-ylmethylene]-1,3-dihydro-indol-2-one], the “Inhibition rate (%) B-Raf^V600E” value on B-Raf^V600E (2μM of compound) amounted to 23% n.d.
Take `O=C1Nc2ccc(Cl)cc2C1=Cc1ccc(-c2cc(C(F)(F)F)ccc2Cl)o1` [Compound 17e, 3-[5-(2-chloro-5-trifluomethyl)-furan-2-ylmethylene]-5-chloro-1,3-dihydro-indol-2-one]: on B-Raf^V600E (2μM of compound), the “Inhibition rate (%) B-Raf^V600E” value came to 34% n.d.
On the same count and under the same terms, in the case of `O=C1Nc2cc(Cl)ccc2C1=Cc1ccc(-c2cc(C(F)(F)F)ccc2Cl)o1` [Compound 17f, 3-[5-(2-chloro-5-trifluomethyl)-furan-2-ylmethylene]-6-chloro-1,3-dihydro-indol-2-one] it was 34% n.d.
As to `O=C1NC(=O)C(=Cc2ccc(-c3ccccc3[N+](=O)[O-])o2)S1` [Compound 19a, 5-[5-(2-nitro-phenyl)-furan-2ylmethylene]-thiazolidine-2,4-dione], the inhibition at 2 µM at B-Raf^V600E (setting [2]) came to 7%.
Still for that read-out and setting: next, `COc1cccc(-c2ccc(C=C3SC(=O)NC3=O)o2)c1` [Compound 19b, 5-[5-(3-methoxy-phenyl)-furan-2ylmethylene]-thiazolidine-2,4-dione]: 34%; `O=C1NC(=O)C(=Cc2ccc(-c3ccc([N+](=O)[O-])cc3)o2)S1` [Compound 19c, 5-[5-(4-nitro-phenyl)-furan-2ylmethylene]-thiazolidine-2,4-dione]: 48%.
`Cc1ccc(-c2ccc(C=C3SC(=O)NC3=O)o2)cc1` [Compound 19g, 5-[5-(4-methyl-phenyl)-furan-2ylmethylene]-thiazolidine-2,4-dione]: the inhibition at 2 µM at B-Raf^V600E (setting [2]) amounted to 41%.
Regarding `COc1ccc(-c2ccc(C=C3SC(=O)NC3=O)o2)cc1` [Compound 19h, 5-[5-(4-methoxy-phenyl)-furan-2ylmethylene]-thiazolidine-2,4-dione], the inhibition at 2 µM at B-Raf^V600E (setting [2]) was 41%; on B-Raf^WT, 3%.
As for `CC(C)(C)c1ccc(-c2ccc(C=C3SC(=O)NC3=O)o2)cc1` [Compound 19i, 5-[5-(4-tert-butyl-phenyl)-furan-2ylmethylene]-thiazolidine-2,4-dione], the inhibition at 2 µM came to 34% on B-Raf^V600E (setting [2]) and 17% on B-Raf^WT.
For `O=C1NC(=O)C(=Cc2ccc(-c3ccc4ccccc4c3)o2)S1` [Compound 19j, 5-[5-(2-naphthyl)-furan-2ylmethylene]-thiazolidine-2,4-dione], on B-Raf^V600E (setting [2]), the inhibition at 2 µM is 51%.
In the case of `O=C1NC(=O)C(=Cc2ccc(-c3cc(C(F)(F)F)ccc3Cl)o2)S1` [Compound 19k, 5-[5-(2-chloro-5-trifluomethyl)-furan-2ylmethylene]-thiazolidine-2,4-dione], the “Inhibition rate (%) B-Raf^V600E” value on B-Raf^V600E (2μM of compound) was determined as 37% n.d. Besides, on B-Raf^WT, the “Inhibition rate (%) B-Raf” value was determined as 18% n.d.
As to `O=C1NC(=S)NC(=O)C1=Cc1ccc(-c2ccccc2[N+](=O)[O-])o1` [Compound 22a, 5-[5-(2-nitro-phenyl)-furan-2ylmethylene]-2-thioxo-dihydro-pyrimidine-4,6-dione], on B-Raf^V600E (setting [3]), the inhibition at 0.5 µM amounted to 48% and the inhibition at 2 µM is 61%. Also, the inhibition at 2 µM on B-Raf^WT worked out at 38%.
`O=C1NC(=S)NC(=O)C1=Cc1ccc(-c2cc(C(F)(F)F)ccc2Cl)o1` [Compound 22k, 5-[5-(2-chloro-5-trifluomethyl)-furan-2ylmethylene]-2-thioxo-dihydro-pyrimidine-4,6-dione]: the “Tumor growth inhibition rate A375(B-Raf^V600E)” value in assay [1] was determined as 18.3.
On to `O=C1NC(=S)NC(=O)C1=Cc1ccc(-c2cccc(C(F)(F)F)c2)o1` [Compound 22l, 5-[5-(3-trifluomethyl-phenyl)-furan-2ylmethylene]-2-thioxo-dihydro-pyrimidine-4,6-dione], for which the “Inhibition rate B-Raf^V600E” value at B-Raf^V600E was 45%. At B-Raf^WT, the “Inhibition rate B-Raf” value came to 30%.
For `O=C1NC(=S)NC(=O)C1=Cc1ccc(-c2ccc(Cl)cc2[N+](=O)[O-])o1` [Compound 22n, 5-[5-(2-nitro-4-chloro)-furan-2ylmethylene]-2-thioxo-dihydro-pyrimidine-4,6-dione], in that order: 22% and 20%.
In the case of `O=C1NC(=S)NC(=O)C1=Cc1ccc(-c2ccc(Cl)cc2C(F)(F)F)o1` [Compound 22o, 5-[5-(2-trifluomethyl-4-chloro)-furan-2ylmethylene]-2-thioxo-dihydro-pyrimidine-4,6-dione], at B-Raf^V600E, the “Inhibition rate B-Raf^V600E” value was found to be 49%. For the same compound, at B-Raf^WT, the “Inhibition rate B-Raf” value was 24%.
On to `O=C1NC(=S)NC(=O)C1=Cc1ccc(-c2ccc(Cl)c(C(F)(F)F)c2)o1` [Compound 22p, 5-[5-(3-trifluomethyl-4-chloro)-furan-2ylmethylene]-2-thioxo-dihydro-pyrimidine-4,6-dione], for which the “Inhibition rate B-Raf^V600E” value at B-Raf^V600E is 48%. The “Inhibition rate B-Raf” value at B-Raf^WT came out at 37%.

For the origin of these results see article PMC3427755 (Organic & biomolecular chemistry, 2012).
